# Data from PubChem BioAssay (NCI).
#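 Exposure lasted 48 hours, with cells grown in 96-well plates and compounds tested at five concentrations. TGI denotes the concentration required for complete inhibition of growth.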
# Key:
# Assay in all cases: NCI tumour cell line growth inhibition, 48 h
# [1] = system: NCI/ADR-RES ovarian
# [2] = system: HL-60(TB) leukemia
# [3] = system: UACC-62 melanoma
# [4] = system: T-47D breast
# [5] = system: IGROV1 ovarian
# [6] = system: K-562 leukemia
# [7] = system: OVCAR-8 ovarian
# [8] = system: RXF 393 renal
# [9] = system: M14 melanoma
# [10] = system: SF-295 CNS
# [11] = system: HCT-116 colon
# [12] = system: SW-620 colon
# [13] = system: ACHN renal
# [14] = system: HCT-15 colon
# [15] = system: SR leukemia
# [16] = system: OVCAR-4 ovarian
# [17] = system: SK-MEL-5 melanoma
# [18] = system: NCI-H226 lung
# [19] = system: SF-539 CNS
# [20] = system: OVCAR-5 ovarian
# [21] = system: UACC-257 melanoma
# [22] = system: SN12C renal
# [23] = system: TK-10 renal
# [24] = system: MOLT-4 leukemia
# [25] = system: COLO 205 colon
# [26] = system: HOP-62 NSCLC
# [27] = system: SNB-19 CNS
# [28] = system: PC-3 prostate
# [29] = system: HT29 colon
# [30] = system: BT-549 breast
# [31] = system: SK-OV-3 ovarian
# [32] = system: SK-MEL-28 melanoma
# [33] = system: NCI-H23 lung
# [34] = system: CCRF-CEM leukemia
# [35] = system: MCF7 breast
# [36] = system: DU-145 prostate
# [37] = system: MALME-3M melanoma
# [38] = system: NCI-H460 lung
# [39] = system: MDA-MB-435
# [40] = system: HCC-2998 colon
# [41] = system: KM12 colon
# [42] = system: LOX IMVI melanoma
# [43] = system: HOP-92 NSCLC
# [44] = system: NCI-H522 lung
# [45] = system: UO-31 renal
# [46] = system: EKVX NSCLC
# [47] = system: MDA-N
# [48] = system: U251 CNS
# [49] = system: SF-268 CNS
# [50] = system: SK-MEL-2 melanoma
# [51] = system: A498 renal
# [52] = system: MDA-MB-231 breast
# [53] = system: 786-0 renal
# [54] = system: A549 NSCLC
# [55] = system: CAKI-1 renal
# [56] = system: RPMI-8226 leukemia
# [57] = system: OVCAR-3 ovarian
# [58] = system: HS 578T breast
# [59] = system: SNB-75 CNS
structure (smiles),measurement,setting,value
CN(C)CCCNc1ncnc2c1ncn2C1OC(CO)C(O)C1O (stereo not drawn),TGI,[1],> 100 µM
same,TGI,[2],> 100 µM
same,TGI,[3],> 100 µM
same,TGI,[4],> 100 µM
same,TGI,[5],> 100 µM
same,TGI,[6],> 100 µM
same,TGI,[7],> 100 µM
same,TGI,[8],> 100 µM
same,TGI,[9],> 100 µM
same,TGI,[10],> 100 µM
same,TGI,[11],> 100 µM
same,TGI,[12],> 100 µM
same,TGI,[13],> 100 µM
same,TGI,[14],> 100 µM
same,TGI,[15],> 100 µM
same,TGI,[16],> 100 µM
same,TGI,[17],> 100 µM
same,TGI,[18],> 100 µM
same,TGI,[19],> 100 µM
same,TGI,[20],> 100 µM
same,TGI,[21],> 100 µM
same,TGI,[22],> 100 µM
same,TGI,[23],> 100 µM
same,TGI,[24],> 100 µM
same,TGI,[25],> 100 µM
same,TGI,[26],> 100 µM
same,TGI,[27],> 100 µM
same,TGI,[28],> 100 µM
same,TGI,[29],> 100 µM
same,TGI,[30],> 100 µM
same,TGI,[31],> 100 µM
same,TGI,[32],> 100 µM
same,TGI,[33],> 100 µM
same,TGI,[34],> 100 µM
same,TGI,[35],> 100 µM
same,TGI,[36],> 100 µM
same,TGI,[37],> 100 µM
same,TGI,[38],> 100 µM
same,TGI,[39],> 100 µM
same,TGI,[40],> 100 µM
same,TGI,[41],> 100 µM
same,TGI,[42],> 100 µM
same,TGI,[43],> 100 µM
same,TGI,[44],> 100 µM
same,TGI,[45],> 100 µM
same,TGI,[46],> 100 µM
same,TGI,[47],> 100 µM
same,TGI,[48],> 100 µM
same,TGI,[49],> 100 µM
same,TGI,[50],> 100 µM
same,TGI,[51],> 100 µM
same,TGI,[52],> 100 µM
same,TGI,[53],> 100 µM
same,TGI,[54],> 100 µM
same,TGI,[55],> 100 µM
same,TGI,[56],> 100 µM
same,TGI,[57],> 100 µM
CO[C@H]1C[C@H](O[C@H]2CC[C@]3(C=O)[C@H]4CC[C@]5(C)[C@@H](C6=CC(=O)OC6)CC[C@]5(O)[C@@H]4CC[C@]3(O)C2)O[C@H](C)[C@H]1O[C@@H]1O[C@H](CO)[C@@H](O)[C@H](O)[C@H]1O,TGI,[2],0.011 µM
same,TGI,[4],0.000185 µM
same,TGI,[5],0.139 µM
same,TGI,[8],0.000154 µM
same,TGI,[10],0.000289 µM
same,TGI,[11],3.5e-05 µM
same,TGI,[12],7.47e-05 µM
same,TGI,[13],0.000135 µM
same,TGI,[58],> 100 µM
same,TGI,[14],8.31e-05 µM
same,TGI,[16],3.07e-05 µM
same,TGI,[17],9.72e-05 µM
same,TGI,[19],5.85e-05 µM
same,TGI,[20],6.97e-05 µM
same,TGI,[22],3.64e-05 µM
same,TGI,[23],0.000395 µM
same,TGI,[24],1.32e-05 µM
same,TGI,[25],0.000867 µM
same,TGI,[26],4.25e-05 µM
same,TGI,[28],0.000955 µM
same,TGI,[30],4.72e-05 µM
same,TGI,[31],0.000153 µM
same,TGI,[32],0.000145 µM
same,TGI,[33],2.88e-05 µM
same,TGI,[34],0.025 µM
same,TGI,[36],1.66e-05 µM
same,TGI,[38],7.71e-05 µM
same,TGI,[40],0.0271 µM
same,TGI,[43],0.000141 µM
same,TGI,[44],4.05e-05 µM
same,TGI,[46],2.03e-05 µM
same,TGI,[47],7.4e-05 µM
same,TGI,[50],0.000435 µM
same,TGI,[51],0.000198 µM
same,TGI,[52],0.0025 µM
same,TGI,[54],9.83e-06 µM
same,TGI,[56],0.0001 µM
O=c1/c(=C/c2ccc([N+](=O)[O-])o2)sc2n1[C@@H](c1ccc(Cl)cc1)C=C(c1cc(F)c(Cl)cc1Cl)N=2,TGI,[1],> 100 µM
same,TGI,[2],49.2 µM
same,TGI,[3],29.2 µM
same,TGI,[4],52.7 µM
same,TGI,[5],31.7 µM
same,TGI,[6],36.9 µM
same,TGI,[7],40.8 µM
same,TGI,[8],28.5 µM
same,TGI,[9],29.1 µM
same,TGI,[10],72.4 µM
same,TGI,[11],18.3 µM
same,TGI,[12],> 100 µM
same,TGI,[13],32.6 µM
same,TGI,[58],> 100 µM
same,TGI,[14],26.7 µM
same,TGI,[16],30.8 µM
same,TGI,[17],28.8 µM
same,TGI,[18],32.4 µM
same,TGI,[19],69 µM
same,TGI,[20],30.6 µM
same,TGI,[21],30.6 µM
same,TGI,[22],19.5 µM
same,TGI,[23],36.2 µM
same,TGI,[24],45.9 µM
same,TGI,[25],16.2 µM
same,TGI,[26],30.6 µM
same,TGI,[27],33.6 µM
same,TGI,[28],32.7 µM
same,TGI,[29],23.2 µM
same,TGI,[30],28.7 µM
same,TGI,[31],50.8 µM
same,TGI,[32],> 100 µM
same,TGI,[33],39.4 µM
same,TGI,[34],> 100 µM
same,TGI,[35],32.2 µM
same,TGI,[36],39.9 µM
same,TGI,[37],33.9 µM
same,TGI,[38],24.3 µM
same,TGI,[39],36.2 µM
same,TGI,[59],> 100 µM
same,TGI,[41],> 100 µM
same,TGI,[42],33.6 µM
same,TGI,[43],28.5 µM
same,TGI,[44],49.2 µM
same,TGI,[45],32.5 µM
same,TGI,[47],23.3 µM
same,TGI,[48],21.7 µM
same,TGI,[49],33.4 µM
same,TGI,[50],17.6 µM
same,TGI,[51],> 100 µM
same,TGI,[52],18.5 µM
same,TGI,[53],20.7 µM
same,TGI,[54],86.9 µM
same,TGI,[55],> 100 µM
same,TGI,[56],25.9 µM
COC(=O)[C@H](Cc1c[nH]c2ccccc12)NP(=O)(O)OC[C@H]1O[C@@H](n2cc(C)c(=O)[nH]c2=O)C[C@@H]1N=[N+]=[N-],TGI,[1],> 100 µM
same,TGI,[2],> 100 µM
same,TGI,[3],> 100 µM
same,TGI,[4],> 100 µM
same,TGI,[5],> 100 µM
same,TGI,[6],> 100 µM
same,TGI,[7],> 100 µM
same,TGI,[8],> 100 µM
same,TGI,[9],> 100 µM
same,TGI,[10],> 100 µM
same,TGI,[11],> 100 µM
same,TGI,[12],> 100 µM
same,TGI,[58],> 100 µM
same,TGI,[14],> 100 µM
same,TGI,[16],> 100 µM
same,TGI,[17],> 100 µM
same,TGI,[18],> 100 µM
same,TGI,[20],> 100 µM
same,TGI,[21],> 100 µM
same,TGI,[22],> 100 µM
same,TGI,[23],> 100 µM
same,TGI,[24],> 100 µM
same,TGI,[25],> 100 µM
same,TGI,[26],> 100 µM
same,TGI,[27],> 100 µM
same,TGI,[28],> 100 µM
same,TGI,[29],> 100 µM
same,TGI,[30],> 100 µM
same,TGI,[31],> 100 µM
same,TGI,[33],> 100 µM
same,TGI,[34],> 100 µM
same,TGI,[35],> 100 µM
same,TGI,[36],> 100 µM
same,TGI,[37],> 100 µM
same,TGI,[38],> 100 µM
same,TGI,[39],> 100 µM
same,TGI,[40],> 100 µM
same,TGI,[59],> 100 µM
same,TGI,[41],> 100 µM
same,TGI,[42],> 100 µM
same,TGI,[43],> 100 µM
same,TGI,[44],> 100 µM
same,TGI,[45],> 100 µM
same,TGI,[46],> 100 µM
same,TGI,[47],> 100 µM
same,TGI,[48],> 100 µM
same,TGI,[49],> 100 µM
same,TGI,[50],> 100 µM
same,TGI,[52],> 100 µM
same,TGI,[53],> 100 µM
same,TGI,[54],> 100 µM
same,TGI,[55],> 100 µM
same,TGI,[56],> 100 µM
same,TGI,[57],> 100 µM
